# Reference: PMC10098121, “Amphipathic barbiturates as marine product mimics with cytolytic and immunogenic effects on head and neck squamous cell carcinoma cell lines” (Frontiers in Pharmacology, 2023)
# System: HSC-3
# Assay: High throughput drug screening (CellTiter-Glo, DSS)
# Format: cell-based, human
# Settings: HSC-3, 72 h, 10-100,000 nM, myogel, non-irradiated
# Experimental: (§1) The MPMs were screened against a panel of […] different cell lines (HSC-3, UT-SCC-8, UT-SCC-24A, UT-SCC-24B, UT-SCC-42A, UT-SCC-42B and NOF) at the High Throughput Biomedicine Unit (HTB) at the Institute for Molecular Medicine Finland (FIMM). On day 1, black-walled 384-well plates were coated with 5 µl diluted myogel (0.5 mg/ml) per well using an automated reagent dispenser (MultiFlo FX, BioTek, Winooski, VT, United States). On day 2, 500 cells per well were seeded in 20 µl of complete media using the MultiFlo FX (BioTek), and the cells were left to adhere overnight. On day 3, the MPMs, cisplatin, DMSO and Benzethonium chloride were added to the cells using an automatic liquid handler (Echo 550, Labcyte Inc., San Jose, CA, United States). Cisplatin and the MPMs were added to yield five different concentrations in a ten-fold dilution series ranging from 10 to 100,000 nM. Each concentration was tested in triplicate wells. DMSO (0.1%) and benzethonium chloride (100 µM) served as negative and positive control, respectively. Three hours later, some of the plates were irradiated with 2 Gy in a gamma irradiator (OB29/4, STS, Braunschweig, Germany). All plates were taken to the irradiation room to ensure similar handling of the plates. 72 h later, the plates were cooled to room temperature before 25 µl of CellTiter-Glo 2.0 reagent (Promega, Madison, WI, USA) was added to each well using the MultiFlo FX (BioTek). Next, the plates were centrifuged for 5 min at 1,000 rpm before the luminescence signal was measured with the PHERAstar FS HT reader (BMG LABTECH GmbH, Ortenberg, Germany). The raw data was analyzed with the Breeze software (https://breeze.fmm.fi), which normalized the luminescence signal from treated cells against the signal from negative and positive control cells to calculate the percentage of inhibition and generate dose-response curves, which were then used to calculate drug sensitivity scores (DSS). The DSS is a parameter which combines the IC50, the slope of the dose-response curve, and the minimum and maximum responses into a single metric, as previously described ([Yadav et al., 2014]). Quality control was performed by calculation of the Z′-factor, which was >0.7 for all cell lines, indicating high quality of the assay ([Zhang et al., 1999]).
row,Structure (SMILES),drug sensitivity score (DSS)
1,NCCCCN1C(=O)N(CCCCN)C(=O)C(CCCc2ccccc2)(CCCc2ccccc2)C1=O [MPM-1],"8,8"

# Same assay, conditions: HSC-3; DSS irradiated (2 Gy) minus DSS non-irradiated; >5 synergy, <–5 antagonism
row,Structure (SMILES),delta DSS (ΔDSS)
1,NCCCCN1C(=O)N(CCCCN)C(=O)C(CCCc2ccccc2)(CCCc2ccccc2)C1=O [MPM-1],0

# System: NOF (normal oral fibroblasts)
# Assay: as above
# Format: cell-based, human
# Settings: 72 h, 10-100,000 nM, myogel, non-irradiated
# Experimental: as §1
row,Structure (SMILES),drug sensitivity score (DSS)
1,NCCCCN1C(=O)N(CCCCN)C(=O)C(CCCc2ccccc2)(CCCc2ccccc2)C1=O [MPM-1],"17,1"

# Same assay, conditions: DSS irradiated (2 Gy) minus DSS non-irradiated, >5 synergy, <–5 antagonism
row,Structure (SMILES),delta DSS (ΔDSS)
1,NCCCCN1C(=O)N(CCCCN)C(=O)C(CCCc2ccccc2)(CCCc2ccccc2)C1=O [MPM-1],"0,4"

# System: UT-SCC-106A
# Assay: as above
# Format: cell-based, human
# Settings: 72 h, 10-100,000 nM, myogel, non-irradiated
# Experimental: as §1
row,Structure (SMILES),drug sensitivity score (DSS)
1,NCCCCN1C(=O)N(CCCCN)C(=O)C(CCCc2ccccc2)(CCCc2ccccc2)C1=O [MPM-1],"10,3"

# Same assay, conditions: DSS irradiated (2 Gy) minus DSS non-irradiated, >5 synergy, <–5 antagonism
row,Structure (SMILES),delta DSS (ΔDSS)
1,NCCCCN1C(=O)N(CCCCN)C(=O)C(CCCc2ccccc2)(CCCc2ccccc2)C1=O [MPM-1],"0,3"

# System: UT-SCC-24A
# Assay: as above
# Format: cell-based, human
# Settings: 72 h, 10-100,000 nM, myogel, non-irradiated
# Experimental: as §1
row,Structure (SMILES),drug sensitivity score (DSS)
1,NCCCCN1C(=O)N(CCCCN)C(=O)C(CCCc2ccccc2)(CCCc2ccccc2)C1=O [MPM-1],"6,9"

# Same assay, conditions: DSS irradiated (2 Gy) minus DSS non-irradiated, >5 synergy, <–5 antagonism
row,Structure (SMILES),delta DSS (ΔDSS)
1,NCCCCN1C(=O)N(CCCCN)C(=O)C(CCCc2ccccc2)(CCCc2ccccc2)C1=O [MPM-1],"-1,1"

# System: UT-SCC-24B
# Assay: as above
# Format: cell-based, human
# Settings: 72 h, 10-100,000 nM, myogel, non-irradiated
# Experimental: as §1
row,Structure (SMILES),drug sensitivity score (DSS)
1,NCCCCN1C(=O)N(CCCCN)C(=O)C(CCCc2ccccc2)(CCCc2ccccc2)C1=O [MPM-1],"9,7"

# Same assay, conditions: DSS irradiated (2 Gy) minus DSS non-irradiated, >5 synergy, <–5 antagonism
row,Structure (SMILES),delta DSS (ΔDSS)
1,NCCCCN1C(=O)N(CCCCN)C(=O)C(CCCc2ccccc2)(CCCc2ccccc2)C1=O [MPM-1],"0,5"

# System: UT-SCC-42A
# Assay: as above
# Format: cell-based, human
# Settings: 72 h, 10-100,000 nM, myogel, non-irradiated
# Experimental: as §1
row,Structure (SMILES),drug sensitivity score (DSS)
1,NCCCCN1C(=O)N(CCCCN)C(=O)C(CCCc2ccccc2)(CCCc2ccccc2)C1=O [MPM-1],"8,4"

# Same assay, conditions: DSS irradiated (2 Gy) minus DSS non-irradiated, >5 synergy, <–5 antagonism
row,Structure (SMILES),delta DSS (ΔDSS)
1,NCCCCN1C(=O)N(CCCCN)C(=O)C(CCCc2ccccc2)(CCCc2ccccc2)C1=O [MPM-1],"-0,8"

# System: UT-SCC-42B
# Assay: as above
# Format: cell-based, human
# Settings: 72 h, 10-100,000 nM, myogel, non-irradiated
# Experimental: as §1
row,Structure (SMILES),drug sensitivity score (DSS)
1,NCCCCN1C(=O)N(CCCCN)C(=O)C(CCCc2ccccc2)(CCCc2ccccc2)C1=O [MPM-1],"7,4"

# Same assay, conditions: DSS irradiated (2 Gy) minus DSS non-irradiated, >5 synergy, <–5 antagonism
row,Structure (SMILES),delta DSS (ΔDSS)
1,NCCCCN1C(=O)N(CCCCN)C(=O)C(CCCc2ccccc2)(CCCc2ccccc2)C1=O [MPM-1],"0,6"

# System: UT-SCC-8
# Assay: as above
# Format: cell-based, human
# Settings: UT-SCC-8, 72 h, 10-100,000 nM, myogel, non-irradiated
# Experimental: as §1
row,Structure (SMILES),drug sensitivity score (DSS)
1,NCCCCN1C(=O)N(CCCCN)C(=O)C(CCCc2ccccc2)(CCCc2ccccc2)C1=O [MPM-1],10

# Same assay, conditions: UT-SCC-8; DSS irradiated (2 Gy) minus DSS non-irradiated; >5 synergy, <–5 antagonism
row,Structure (SMILES),delta DSS (ΔDSS)
1,NCCCCN1C(=O)N(CCCCN)C(=O)C(CCCc2ccccc2)(CCCc2ccccc2)C1=O [MPM-1],"-0,8"

# System: seven HNSCC cell lines and one normal oral fibroblast cell line (NOF)
# Assay: High throughput drug screening, statements on the whole panel
# Format: cell-based, human
# Settings: DSS; cancer lines and NOFs cultured in different media
# Experimental: as §1
row,Structure (SMILES),selectivity for cancer cell lines over NOFs (in words)
1,NCCCCN1C(=O)N(CCCCN)C(=O)C(CCCc2ccccc2)(CCCc2ccccc2)C1=O [MPM-1],"slight tendency towards selectivity for the NOFs, which was especially prominent for MPM-1"

# System: human red blood cells
# Assay: not given
# Design: method as in von Hofsten et al., 2022
# Settings: highest concentration 500 μM; ref von Hofsten et al., 2022; read-out: EC50 hemolytic activity against human red blood cells; cited from earlier work
row,Structure (SMILES),EC50
1,NCCCCN1C(=O)N(CCCCN)C(=O)C(CCCc2ccccc2)(CCCc2ccccc2)C1=O [MPM-1],> 500 µM
